# Legend:
# [1] = biological target: Leukemia virus reverse transcriptase (Moloney murine leukemia virus, UniProt P03355); settings: cited from earlier work
# rabbit aortic rings = test: Ex vivo endothelium-dependent relaxation of NE pre-constricted rabbit aortic rings; settings: for relaxation in pre-contracted aortic rings, dose dependence: FIGS. 1A-1C, 10^-9 to 10^-4 M cumulative; for vasorelaxation, percent relaxation of NE constricted rings: concentration 10^−4M, +/−SE; for relaxant potency compared with positive control acetylcholine: significant at p=0.005 for A1 dimer
# Method: Effect of A-type procyanidins on endothelium-dependent relaxation was tested in an ex vivo experiment performed as previously described by Karim et al., J. Nutrl Suppl., 130 (8S): […]-[…] (2000), the relevant portions of which are hereby incorporated herein by reference. The advantage of using this method is that it assesses functional cardiovascular end points. […] In summary, rabbit aortic rings were obtained from male New Zealand White rabbits. Following isolation, the rings were mounted in oxygenated Kreb's buffer, and pre-constricted with NE (10^-6 M). When the tension had reached a steady state, cumulative concentrations of the test compounds were applied (10^-9 to 10^-4 M). A positive control acetylcholine (10^-6M) and a negative control L-NAME were included in the experiment. Use of L-NAME, which is a NO synthase (NOS) inhibitor, allows for differentiating between endothelium dependent and endothelium independent relaxation events. Denuding of aortic rings represent a similar control. 400 U/mL of catalase was added into the aortic bath prior to the addition of each of the test compounds to ensure that the observed effects are not caused by hydrogen peroxide (H202) generation in the culture medium. The relaxation response was measured as a function of the decrease in the tension (g) exerted by the aortic rings over time. Data obtained were expressed as a percent relaxation of the norepinephrine (NE) constricted rings. The same statistical approach as described above was used. Dose response curves were obtained by plotting the average percent relaxation (+/-SE) against the concentrations used.
# platelets in whole blood = test: Collagen-induced platelet aggregation in whole blood (platelet counting); assay type: cell-based, human; settings: collagen 0.125-0.5 μg/ml, A1 dimer 0.3 mM; for collagen-induced platelet aggregation: FIG. 2, 4 and 10 min, ASA 100 μM
# Method: Platelet aggregation of A1 dimer [A1D] was measured using a platelet counting technique, and formation of platelet/monocyte conjugates (P/M) and platelet/neutrophil conjugates (PIN) by flow cytometry. In later experiments the activation state of platelets associated with leukocytes (CD62P) was also measured and also the activation state of the leukocytes themselves (CD11b).
# A1 dimer [A1D] was dissolved in ethanol. Once in solution, further dilution with saline was possible. Hirudin, (Revasc™) was obtained from Novartis (Basel, Switzerland) and was stored as a 5 mg/ml solution in saline in a glass vial at −20° C. Collagen (Nycomed) was from Axis Shield Diagnostics (Dundee, UK). Concentrations were prepared from the stock solution (1 mg/ml) using the isotonic glucose buffer supplied by the manufacturer. Aspirin (acetyl salicylic acid-ASA), adenosine diphosphate (ADP), platelet activating factor (PAF), arachidonic acid (AA) and epinephrine were from Sigma. Fixing solution consisted of 140 mM NaCl containing 0.16% w/v formaldehyde, 4.6 mM Na2EDTA, 4.5 mM Na2HP04 and 1.6 mM KH2PO4, pH 7.4.
# Blood samples were studied using the Multi-Sample Agitator (MSA) produced by the Medical Engineering Unit (University of Nottingham). The MSA is used to maintain blood samples at 37° C. and to agitate small samples of blood at a stir speed of 1,000 rpm as required. […]
# Following the 30 min pre-incubation, aliquots of blood (480 μl) were dispensed into small polystyrene tubes each containing a stir bar and stirred for 2 min in the MSA. […] The platelet count in the fixed samples was determined using the UltraFlo-100 Whole Blood Platelet Counter. Platelet aggregation was calculated as the percentage loss of single platelets with reference to the platelet count of the EDTA sample.
# Blood was obtained from three different volunteers and the platelet aggregation and platelet/leukocyte conjugate formation was measured in response to collagen (0, 0.125, 0.25 and 0.5 μg/ml). […] Aggregation was measured at 4 and 10 min following agonist addition and platelet/leukocyte conjugate formation only at 10 min. […]
# [2] = system: CD11b on monocytes and neutrophils; test: Leukocyte activation (CD11b expression) by flow cytometry; assay type: cell-based, human; settings: FIG. 3; 10 min; collagen 0.125-0.5 μg/ml; A1 dimer 0.3 mM, aspirin 100 μM
# Method: Platelet-leukocyte conjugate formation was measured in the same stirred samples used to measure platelet aggregation. Sub samples were taken 4 min or 10 min following the addition of agonist and transferred into the appropriate antibody or antibody mixture. These were then incubated in the dark at room temperature for not less than 20 min. Following red cell lysis and a washing procedure the cell suspensions were applied to either the FACScan or the LSRII flow cytometer. Leukocytes were identified by logical gating from dot plots of forward scatter (cell size) and side scatter (cell granularity) profiles acquired with linear amplification. […] Fluorescence parameters were acquired with logarithmic amplification. Platelet monocyte (P/M) and platelet neutrophil (P/N) conjugates were quantified as median CD42a (FITC) fluorescence of the monocyte (P/M mf) or neutrophil population (PIN mf). Leukocyte activation was measured by CD11b (AlexaFluor647) expression (CD11b-M for monocytes and CD11b-N for neutrophils). Platelet activation (P-selectin expression) was measured by CD62P (PE) positivity of the platelets associated with leukocytes as (CD62P-M on P/M and CD62P-N on PIN). […]
# Blood was obtained from three different volunteers and the platelet aggregation (4 min) and platelet/leukocyte conjugate formation (10 min) was measured in response to collagen (0, 0.125, 0.25 and 0.5 μg/ml). […]
# [3] = system: human umbilical vein endothelial cell (HUVEC); test: NO production (NOx) in serum-free HUVEC culture; assay type: cell-based
# Method: The compounds obtained as described in Example 1, were investigated for their effect on nitric oxide (NO) production and vasorelaxation using serum-free human umbilical vein endothelial cell (HUVEC) culture system in vitro and rabbit aortic ring model ex vivo, respectively. NO production by endothelial cells and relaxation of pre-constricted aortic rings are two main markers for evaluating cardiovascular effects of test compounds.
# HUVECs obtained from a single donor were cultured in serum free, low protein (0.5 g/l), antibiotic-free cell culture medium supplemented with essential growth factors, nutrients and minerals. […] The cell culture medium was substituted with apo-transferrin, superoxide dismutase, and catalase to exclude secondary effects of test compounds involving their auto-oxidation mediated hydrogen peroxide formation.
# (§1) Test compounds were evaluated with respect to their potential to acutely (2 hours) and chronically (5 doses given in a 24 h period) modulate NO production. Positive controls (acetylcholine and/or histamine) and negative control L-NNMA (NO synthase inhibitor) were included in all experiments. Cell counts and total protein were used to assess intra-assay variation. Potential toxic effects of tested compounds were also monitored (MTT reduction was measured).
# NO production was evaluated by measuring the total amount of all major nitric oxide end products (NOx, including nitrate, nitrite, nitrosothiols) present in the cell culture medium. […] The amount of NO released from the culture medium was subsequently evaluated by measuring the chemiluminescence emitted during the stoichiometrical reaction between ozone and NO using NO Analyzer (Sievers Instruments, Inc. Boulder, Colo.).
# The data presented herein were obtained from three experiments and were expressed as the concentration of NO present (in μmol/l) (as NOx) in the cell culture medium+/−standard deviation (SD). The data were corrected for the NOx intrinsically present in the fully supplemented cell culture medium and normalized with respect ot the volume of media from which the ample was drawn. Data were analyzed using Student's t-test with a 95% level of confidence. P values equal to or less than 0.005 were defined as statistically significant.
# (§2) For the acute effect test, HUVECs were incubated with a single dose of A2 dimer and A-type trimer for 2 and 24 hours at concentrations of 100 nM, 1 μM, and 10 μM at 37 C and 5% CO2. No effect was observed on NO production after 2 hours.
# For the chronic effect test, HUVECs were incubated with 5 subsequent doses of test compounds, each for 24 hours. After each 24 hour treatment, culture medium was replaced. A2 dimer and A-type trimer were tested.
# HUVECs = test: MTT reduction, toxic effects on HUVECs; assay type: cell-based, human; settings: acute effect test
# Method: as §1, §2
# [4] = system: platelet/monocyte and platelet/neutrophil conjugates in whole blood; test: Platelet-leukocyte conjugate formation (P/M, P/N) by flow cytometry; assay type: cell-based, human; settings: FIG. 2; 10 min; collagen 0.125-0.5 μg/ml; ASA 100 μM
# Method: Platelet aggregation of A1 dimer [[MUT]] was measured using a platelet counting technique, and formation of platelet/monocyte conjugates (P/M) and platelet/neutrophil conjugates (PIN) by flow cytometry. In later experiments the activation state of platelets associated with leukocytes (CD62P) was also measured and also the activation state of the leukocytes themselves (CD11b). Blood was obtained from healthy volunteers, who denied taking any aspirin or NSAIDS in the previous 10 days. This blood was dispensed into graduated polystyrene tubes that contained hirudin (final concentration 50 μg/ml) and a small volume of the flavanol under investigation or ethanol as control. The final concentration of ethanol in the blood was always 0.3%. […] Platelet-leukocyte conjugate formation was measured in the same stirred samples used to measure platelet aggregation. […] Fluorescence parameters were acquired with logarithmic amplification. Platelet monocyte (P/M) and platelet neutrophil (P/N) conjugates were quantified as median CD42a (FITC) fluorescence of the monocyte (P/M mf) or neutrophil population (PIN mf). Leukocyte activation was measured by CD11b (AlexaFluor647) expression (CD11b-M for monocytes and CD11b-N for neutrophils). Platelet activation (P-selectin expression) was measured by CD62P (PE) positivity of the platelets associated with leukocytes as (CD62P-M on P/M and CD62P-N on PIN). […]
# [5] = experimental animal studies; cited from earlier work
# [6] = acute test, single dose, after 2 hours, 100 nM, 1 μM and 10 μM
# [7] = acute test, single dose, after 24 hours, 1 μM
# [8] = acute test, single dose, after 24 hours, 10 μM, not statistically significant
# [9] = typical response of positive control
structure (smiles),measurement,setting,value
Oc1cc(O)c2c(c1)O[C@H](c1ccc(O)c(O)c1)[C@@H](O)C2 [(+)-catechin],inhibition of Leukemia virus reverse transcriptase activity,[1],inhibit
Oc1cc(O)c2c(c1)O[C@H](c1ccc(O)c(O)c1)[C@H](O)C2 [(−)-epicatechin],inhibition of Leukemia virus reverse transcriptase activity,[1],inhibit
"Oc1cc(O)c2c(c1)O[C@@]1(c3ccc(O)c(O)c3)Oc3cc(O)c4c(c3[C@@H]2[C@H]1O)O[C@H](c1ccc(O)c(O)c1)[C@@H](O)C4 [A1 dimer, epicatechin-(4β→8; 2β→O→7)-catechin]","relaxation in pre-contracted aortic rings, dose dependence",rabbit aortic rings,dose-dependent relaxation
same,"vasorelaxation, percent relaxation of NE constricted rings",rabbit aortic rings,93.20+/−3.46%
same,relaxant potency compared with positive control acetylcholine,rabbit aortic rings,more potent relaxants that the positive control
same,collagen-induced platelet aggregation,platelets in whole blood,inhibited
same,collagen induced aggregation,"platelets in whole blood; FIG. 3, 4 min",inhibited
same,leukocyte activation (CD11b),[2],did not inhibit
"Oc1cc(O)c2c(c1)O[C@@]1(c3ccc(O)c(O)c3)Oc3cc(O)c4c(c3[C@@H]2[C@H]1O)O[C@H](c1ccc(O)c(O)c1)[C@H](O)C4 [A2 dimer, epicatechin-(4β→8; 2β→O→7)-epicatechin]",effect on NO production,[3]; [6],No effect
same,effect on NO production,[3]; [7],no effect
same,effect on NO production,[3]; [8],increased NO production above the control level
same,"toxic effects, MTT assay",HUVECs,did not have toxic effects
same,"relaxation in pre-contracted aortic rings, dose dependence",rabbit aortic rings,dose-dependent relaxation
same,"vasorelaxation, percent relaxation of NE constricted rings",rabbit aortic rings,85.00+/−2.91%
same,relaxant potency compared with positive control acetylcholine,rabbit aortic rings,more potent relaxants that the positive control
Oc1cc(O)c2c(c1)O[C@@]1(c3ccc(O)c(O)c3)Oc3cc(O)c4c(c3[C@@H]2[C@H]1O)O[C@H](c1ccc(O)c(O)c1)[C@@H](O)C4c1c(O)cc(O)c2c1CC(c1ccc(O)c(O)c1)C(O)C2 (some centres unmarked) [A-type trimer],effect on NO production,[3]; [6],No effect
same,effect on NO production,[3]; [7],no effect
same,effect on NO production,[3]; [8],increased NO production above the control level
same,effect on NO production,"[3]; chronic test, 5 subsequent doses, each for 24 hours, p=0.041",statistically significant increase in NO production
same,"toxic effects, MTT assay",HUVECs,did not have toxic effects
same,"relaxation in pre-contracted aortic rings, dose dependence",rabbit aortic rings,dose-dependent relaxation
same,"vasorelaxation, percent relaxation of NE constricted rings",rabbit aortic rings,56.5+/−16.56%
"CC(=O)Oc1ccccc1C(=O)O [ASA, acetyl salicylic acid, reference compound]",collagen-induced platelet aggregation,platelets in whole blood,effectively inhibited
same,platelet/monocyte conjugates (P/M),[4],effectively inhibited
same,platelet/neutrophil conjugates (P/N),[4],effectively inhibited
same,leukocyte activation (CD11b),[2],no effect
"CC(=O)OCC[N+](C)(C)C [Acetylcholine, acetylcholine, reference compound]",concentration producing a relaxation response,rabbit aortic rings; [9],10^−7 M
same,concentration reaching maximal relaxation,rabbit aortic rings; [9],10^−6 M
O=c1c(O)c(-c2ccc(O)c(O)c2)oc2cc(O)cc(O)c12 [quercetin],anticarcinogenic activity,[5],anticarcinogenic activity

# From patent US20190269715A1, “COMPOSITIONS AND METHOD OF USE OF A-TYPE PROCYANIDINS” (MARS, INCORPORATED, priority 2004, published 2019)
